Laboratory results taken from patent US20080033026A1, “Antimicrobial compositions, methods and systems” (priority 2006, published 2008).

How the values were obtained:
[1] = test system: Staphylococcus aureus (ATCC 6538); assay: Time-kill determination; type: cell-based
Protocol: (§1) The assessment of efficacy of 9-decenoic acid against a spectrum of microorganisms was determined using the American Society for Testing and Materials (ASTM) procedure entitled “Standard Test Method for the Assessment of Microbiocidal Activity of Test Materials Using a Time-Kill Procedure,” October 1998. This procedure incorporates the recommendations described in the “Manual of Clinical Microbiology,” 5th ed., edited by A. B. Balows et al., ASM, Washington, and is directed by the Federal Register, June 1994.
(§2) Challenge organisms were prepared as follows. Cultures of the following organisms were obtained: Staphylococcus aureus (ATCC 6538), Pseudomonas aeruginosa (ATCC 15442), Staphylococcus epidermidis (ATCC 12228), Klebsiella pneumoniae (ATCC 4352), Escherichia coli 0157:H7 (ATCC 43895) and Candida albicans (ATCC 10231). The stock cultures were transferred to sterile tubes and sterile tryptic soy broth (TSB) was added to the cultures. The mixture was incubated for 18-24 hours at 37° C. (±2° C.). A portion of this culture was then transferred onto TSA plates and incubated for 18-24 hours at 37° C. (±2° C.). The plates were removed from incubation and the bacterial growth was washed from the agar surface using Butterfield's Phosphate Buffered Dilution Water (PBDW).
(§3) The bacterial suspension was adjusted to contain approximately 10^8 Colony Forming Units (CFU) per ml with PBDW. The concentration was adjusted to an optical density (OD) of 0.4-0.5 (versus a PBDW blank) at 620 nm in a UV-Vis spectrophotometer, and this optical density gave approximately 10^8 colony forming units per milliliter (cfu/ml). The standardized suspension was stored under appropriate conditions until it was used as the challenge inoculum.
(§4) Concentrated 9-decenoic acid (97%) was diluted in filter sterilized isopropanol to yield a 25,000 ppm stock solution. Subsequent dilutions to the 9-decenoic acid stock solutions were made with sterile Deionized Water (DI) to achieve concentrations of 0.1%, 0.05%, 0.01% and 0.001%. The pH was determined for each dilution; pH values ranged from 4.4-4.1. […] In addition, 9-decenoic acid stock solution was combined with Triclosan™ (obtained from Ciba Specialty Chemical Corporation, under the tradename Irgasan DP 300™) in various ratios, as indicated in Table 8. The pH of the combined solution was 7.
(§5) Compliant with the ASTM procedure cited, for each challenge microorganism a 9.9 ml aliquot of the prepared 9-decenoic acid suspension was added to a sterile tube. A 0.1 ml aliquot of the standardized inoculum was added to the 9-decenoic acid solution representing the start of the test exposure. The inoculated 9-decenoic acid solution was immediately mixed thoroughly. The inoculated suspension was held at room temperature for 0.5, 2, 5, 7 and 10-minute exposure times for tests run at pH level of approximately 4. The pH 7 tests were held at room temperature for 0.5 and 2 minutes.
(§6) At each exposure sample time, a 1.0 ml aliquot of the inoculated 9-decenoic acid suspension was transferred to 9.0 ml of D/E Neutralizing Broth. Additional ten-fold serial dilutions were made in PBDW and plated in duplicate on TSA. All plates were incubated for 48 hours at 37° C. (±2° C.) and visually examined for growth. The plates were enumerated, recorded and log kill determined for each time point.
(§7) The following study controls were conducted: culture purity, neutralizer sterility, initial suspension population, test population, neutralization verification and a negative control using isopropanol. Culture purity was verified by performing a streak plate for isolated colonies of each culture used. All cultures were determined to be pure based on consistent colony morphology typical for the test organism. The neutralizer sterility was confirmed by no growth in an incubated sample.
(§8) The populations of the initial and test culture were determined by serial dilution, plating and enumerating after incubation. The initial suspension were determined to be ≧10^4 CFU/ml. […]

[2] = test system: Escherichia coli 0157:H7 (ATCC 43895); assay: Time-kill determination; type: cell-based
Protocol: as §1, §2, §3, §4, §5, §6, §7, §8

[3] = 0.01% 9-decenoic acid, pH 4.4, exposure 0.5 min
[4] = 0.01% 9-decenoic acid, pH 4.4, exposure 2 min
[5] = 0.01% 9-decenoic acid, pH 4.4, exposure 5 min
[6] = 0.01% 9-decenoic acid, pH 4.4, exposure 7 min
[7] = 0.01% 9-decenoic acid, pH 4.4, exposure 10 min
[8] = 0.05% 9-decenoic acid, pH 4.1, exposure 0.5 min
[9] = 0.05% 9-decenoic acid, pH 4.1, exposure 2 min
[10] = 0.05% 9-decenoic acid, pH 4.1, exposure 5 min
[11] = 0.05% 9-decenoic acid, pH 4.1, exposure 7 min
[12] = 0.05% 9-decenoic acid, pH 4.1, exposure 10 min
[13] = 0.05% 9-decenoic acid, pH 7, exposure 0.5 min
[14] = 0.05% 9-decenoic acid, pH 7, exposure 2 min
[15] = 0.1% 9-decenoic acid, pH 4.1, exposure 0.5 min
[16] = 0.1% 9-decenoic acid, pH 4.1, exposure 2 min
[17] = 0.1% 9-decenoic acid, pH 4.1, exposure 5 min
[18] = 0.1% 9-decenoic acid, pH 4.1, exposure 7 min
[19] = 0.1% 9-decenoic acid, pH 4.1, exposure 10 min
[20] = 0.75% 9-decenoic acid, pH 7, exposure 0.5 min
[21] = 0.75% 9-decenoic acid, pH 7, exposure 2 min
[22] = 1% 9-decenoic acid, pH 7, exposure 0.5 min
[23] = 1% 9-decenoic acid, pH 7, exposure 2 min

## C=CCCCCCCCC(=O)O [9-decenoic acid]
[1]; [3]
  Log reduction: 1.4 log
[1]; [4]
  Log reduction: 4.6 log
[1]; [5]
  Log reduction: >6.5 log
[1]; [6]
  Log reduction: >6.5 log
[1]; [7]
  Log reduction: >6.5 log
[1]; [8]
  Log reduction: >6.5 log
[1]; [9]
  Log reduction: >6.5 log
[1]; [10]
  Log reduction: >6.5 log
[1]; [11]
  Log reduction: >6.5 log
[1]; [12]
  Log reduction: >6.5 log
[1]; [13]
  Log reduction: 0 log
[1]; [14]
  Log reduction: 0 log
[1]; [15]
  Log reduction: >6.5 log
[1]; [16]
  Log reduction: >6.5 log
[1]; [17]
  Log reduction: >6.5 log
[1]; [18]
  Log reduction: >6.5 log
[1]; [19]
  Log reduction: >6.5 log
[1]; [20]
  Log reduction: 0.67 log
[1]; [21]
  Log reduction: 1 log
[1]; [22]
  Log reduction: 2.1 log
[1]; [23]
  Log reduction: 3.2 log
[2]; [3]
  Log reduction: 1.3 log
[2]; [4]
  Log reduction: 1.6 log
[2]; [5]
  Log reduction: 2.2 log
[2]; [6]
  Log reduction: 1.8 log
[2]; [7]
  Log reduction: 2.7 log
[2]; [8]
  Log reduction: >6.2 log
[2]; [9]
  Log reduction: >6.2 log
[2]; [10]
  Log reduction: >6.2 log
[2]; [11]
  Log reduction: >6.2 log
[2]; [12]
  Log reduction: >6.2 log
[2]; [13]
  Log reduction: 0 log
[2]; [14]
  Log reduction: 0 log
[2]; [15]
  Log reduction: >6.2 log
[2]; [16]
  Log reduction: >6.2 log
[2]; [17]
  Log reduction: >6.2 log
[2]; [18]
  Log reduction: >6.2 log
[2]; [19]
  Log reduction: >6.2 log
[2]; 0.5% 9-decenoic acid added to Triclosan, pH 7
  Enhancement of disinfectant activity of marginally-effective concentrations of Triclosan: 1-2 log reductions
[2]; 0.5% 9-decenoic acid, pH 7, exposure 0.5 min
  Log reduction: 0 log
[2]; 0.5% 9-decenoic acid, pH 7, exposure 2 min
  Log reduction: 0 log
[2]; [20]
  Log reduction: 0.83 log
[2]; [21]
  Log reduction: >4.2 log
[2]; [22]
  Log reduction: >4.2 log
[2]; [23]
  Log reduction: >4.2 log
